# Measured values as given in ChEMBL document CHEMBL4138123, “Design, synthesis and biological evaluation of novel pyrazolochalcones as potential modulators of PI3K/Akt/mTOR pathway and inducers of apoptosis in breast cancer cells” (Eur J Med Chem, 2017).
# Key:
# [1] = tested on: RPMI-8226; assay: Cytotoxicity against human RPMI8226 cells assessed as growth inhibition after 48 hrs by sulforhodamine B assay; format: functional; details: RPMI-8226, 48 h
# [2] = tested on: SR; assay: Cytotoxicity against human SR cells assessed as growth inhibition after 48 hrs by sulforhodamine B assay; format: functional; details: for CC50: read-out: LC50 (the source's name)
# [3] = tested on: NCI-H522; assay: Cytotoxicity against human NCI-H522 cells assessed as growth inhibition after 48 hrs by sulforhodamine B assay; format: functional; details: NCI-H522, 48 h
# [4] = tested on: UACC-62; assay: Cytotoxicity against human UACC62 cells assessed as growth inhibition after 48 hrs by sulforhodamine B assay; format: functional; details: UACC-62, 48 h
# [5] = tested on: 786-0; assay: Cytotoxicity against human 786-0 cells assessed as growth inhibition after 48 hrs by sulforhodamine B assay; format: functional; details: 786-0, 48 h
# [6] = tested on: TK-10; assay: Cytotoxicity against human TK10 cells assessed as growth inhibition after 48 hrs by sulforhodamine B assay; format: functional; details: TK-10, 48 h
# [7] = tested on: UO-31; assay: Cytotoxicity against human UO31 cells assessed as growth inhibition after 48 hrs by sulforhodamine B assay; format: functional; details: UO-31, 48 h
# [8] = tested on: MCF7; assay: Cytotoxicity against human MCF7 cells assessed as growth inhibition after 48 hrs by MTT assay; format: functional, cell-based; details: MCF7, 48 h
# [9] = tested on: A498; assay: Cytotoxicity against human A498 cells assessed as cell growth at 0.01 uM after 48 hrs by sulforhodamine B assay relative to control; format: functional; details: A498, 48 h, read-out: Activity
# [10] = tested on: 786-0; assay: Cytotoxicity against human 786-0 cells assessed as cell growth at 0.01 uM after 48 hrs by sulforhodamine B assay relative to control; format: functional; details: 786-0, 48 h, read-out: Activity
# [11] = tested on: SK-OV-3; assay: Cytotoxicity against human SKOV3 cells assessed as cell growth at 0.01 uM after 48 hrs by sulforhodamine B assay relative to control; format: functional; details: SK-OV-3, 48 h, read-out: Activity
# [12] = tested on: SNB-19; assay: Cytotoxicity against human SNB19 cells assessed as cell growth at 0.01 uM after 48 hrs by sulforhodamine B assay relative to control; format: functional; details: SNB-19, 48 h, read-out: Activity
# [13] = tested on: SW-620; assay: Cytotoxicity against human SW620 cells assessed as cell growth at 0.01 uM after 48 hrs by sulforhodamine B assay relative to control; format: functional; details: SW-620, 48 h, read-out: Activity
# [14] = tested on: NCI-H226; assay: Cytotoxicity against human NCI-H226 cells assessed as cell growth at 0.01 uM after 48 hrs by sulforhodamine B assay relative to control; format: functional; details: NCI-H226, 48 h, read-out: Activity
# [15] = tested on: MOLT-4; assay: Cytotoxicity against human MOLT4 cells assessed as cell growth at 0.01 uM after 48 hrs by sulforhodamine B assay relative to control; format: functional; details: MOLT-4, 48 h, read-out: Activity
# [16] = tested on: MDA-MB-468; assay: Cytotoxicity against human MDA-MB-468 cells assessed as cell growth at 0.01 uM after 48 hrs by sulforhodamine B assay relative to control; format: functional; details: MDA-MB-468, 48 h, read-out: Activity
# [17] = tested on: SR; assay: Cytotoxicity against human SR cells assessed as cell growth at 0.1 uM after 48 hrs by sulforhodamine B assay relative to control; format: functional; details: read-out: Activity
# [18] = tested on: SK-MEL-5; assay: Cytotoxicity against human SK-MEL-5 cells assessed as cell growth at 0.1 uM after 48 hrs by sulforhodamine B assay relative to control; format: functional; details: SK-MEL-5, 48 h, read-out: Activity
# [19] = tested on: OVCAR-3; assay: Cytotoxicity against human OVCAR3 cells assessed as cell growth at 0.1 uM after 48 hrs by sulforhodamine B assay relative to control; format: functional; details: OVCAR-3, 48 h, read-out: Activity
# [20] = tested on: ACHN; assay: Cytotoxicity against human ACHN cells assessed as cell growth at 0.1 uM after 48 hrs by sulforhodamine B assay relative to control; format: functional; details: read-out: Activity
# [21] = tested on: RXF 393; assay: Cytotoxicity against human RXF393 cells assessed as cell growth at 0.1 uM after 48 hrs by sulforhodamine B assay relative to control; format: functional; details: RXF 393, 48 h, read-out: Activity
# [22] = tested on: A549; assay: Cytotoxicity against human A549/ATCC cells assessed as cell growth at 1 uM after 48 hrs by sulforhodamine B assay relative to control; format: functional; details: A549, 48 h, read-out: Activity
# [23] = tested on: A498; assay: Cytotoxicity against human A498 cells assessed as cell growth at 1 uM after 48 hrs by sulforhodamine B assay relative to control; format: functional; details: A498, 48 h, read-out: Activity
# [24] = tested on: MCF7; assay: Cytotoxicity against human MCF7 cells assessed as cell growth at 1 uM after 48 hrs by sulforhodamine B assay relative to control; format: functional; details: MCF7, 48 h, read-out: Activity
# [25] = tested on: MDA-MB-231; assay: Cytotoxicity against human MDA-MB-231 cells assessed as cell growth at 1 uM after 48 hrs by sulforhodamine B assay relative to control; format: functional; details: MDA-MB-231, 48 h, read-out: Activity
# [26] = tested on: SK-MEL-28; assay: Cytotoxicity against human SK-MEL-28 cells assessed as cell growth at 10 uM after 48 hrs by sulforhodamine B assay relative to control; format: functional; details: SK-MEL-28, 48 h, read-out: Activity
# [27] = tested on: UACC-257; assay: Cytotoxicity against human UACC257 cells assessed as cell growth at 10 uM after 48 hrs by sulforhodamine B assay relative to control; format: functional; details: UACC-257, 48 h, read-out: Activity
# [28] = tested on: UACC-62; assay: Cytotoxicity against human UACC62 cells assessed as cell growth at 10 uM after 48 hrs by sulforhodamine B assay relative to control; format: functional; details: UACC-62, 48 h, read-out: Activity
# [29] = tested on: IGROV-1; assay: Cytotoxicity against human IGROV1 cells assessed as cell growth at 10 uM after 48 hrs by sulforhodamine B assay relative to control; format: functional; details: IGROV-1, 48 h, read-out: Activity
# [30] = tested on: UO-31; assay: Cytotoxicity against human UO31 cells assessed as cell growth at 10 uM after 48 hrs by sulforhodamine B assay relative to control; format: functional; details: UO-31, 48 h, read-out: Activity
# [31] = tested on: BT-549; assay: Cytotoxicity against human BT549 cells assessed as cell growth at 10 uM after 48 hrs by sulforhodamine B assay relative to control; format: functional; details: BT-549, 48 h, read-out: Activity
# [32] = tested on: U-251; assay: Cytotoxicity against human U251 cells assessed as cell growth at 100 uM after 48 hrs by sulforhodamine B assay relative to control; format: functional; details: U-251, 48 h, read-out: Activity
# [33] = tested on: UACC-257; assay: Cytotoxicity against human UACC257 cells assessed as cell growth at 100 uM after 48 hrs by sulforhodamine B assay relative to control; format: functional; details: UACC-257, 48 h, read-out: Activity
# [34] = tested on: A498; assay: Cytotoxicity against human A498 cells assessed as cell growth at 100 uM after 48 hrs by sulforhodamine B assay relative to control; format: functional; details: A498, 48 h, read-out: Activity
structure (smiles),measurement,setting,value
COc1cc(C(=O)/C=C/c2cc(-c3cc(OC)c(OC)c(OC)c3)n[nH]2)cc(OC)c1OC,LC50,[1],> 100 µM
same,TGI,[1],2.06 µM
same,TGI,[2],> 100 µM
same,CC50,[2],> 100 µM
same,LC50,[3],4.22 µM
same,TGI,[3],1.7 µM
same,LC50,[4],7.6 µM
same,TGI,[4],3.68 µM
same,LC50,[5],6.76 µM
same,TGI,[5],3.25 µM
same,LC50,[6],5.34 µM
same,TGI,[6],2.8 µM
same,LC50,[7],5.16 µM
same,TGI,[7],2.48 µM
same,IC50,[8],0.43 µM
same,growth at 0.01 µM,[9],95%
same,growth at 0.01 µM,[10],101%
same,growth at 0.01 µM,[11],100%
same,growth at 0.01 µM,[12],92%
same,growth at 0.01 µM,[13],96%
same,growth at 0.01 µM,[14],99%
same,growth at 0.01 µM,[15],104%
same,growth at 0.01 µM,[16],90%
same,growth at 0.1 µM,[17],93%
same,growth at 0.1 µM,[18],95%
same,growth at 0.1 µM,[19],105%
same,growth at 0.1 µM,[20],100%
same,growth at 0.1 µM,[21],88%
same,growth at 1 µM,[22],84%
same,growth at 1 µM,[23],80%
same,growth at 1 µM,[24],40%
same,growth at 1 µM,[25],73%
same,growth at 10 µM,[26],-92%
same,growth at 10 µM,[27],-93%
same,growth at 10 µM,[28],-69%
same,growth at 10 µM,[29],1%
same,growth at 10 µM,[30],-95%
same,growth at 10 µM,[31],-96%
same,growth at 100 µM,[32],-99%
same,growth at 100 µM,[33],-99%
same,growth at 100 µM,[34],-98%
COc1cc(-c2cc(/C=C/C(=O)c3ccc(Cl)c(Cl)c3)[nH]n2)cc(OC)c1OC,LC50,[1],> 100 µM
same,TGI,[1],6.73 µM
same,TGI,[2],13.5 µM
same,CC50,[2],96 µM
same,LC50,[3],6.97 µM
same,TGI,[3],3.04 µM
same,LC50,[4],> 100 µM
same,TGI,[4],> 100 µM
same,LC50,[5],> 100 µM
same,TGI,[5],68 µM
same,LC50,[6],> 100 µM
same,TGI,[6],43.2 µM
same,LC50,[7],> 100 µM
same,TGI,[7],> 100 µM
same,IC50,[8],3.2 µM
same,growth at 0.01 µM,[9],84%
same,growth at 0.01 µM,[10],95%
same,growth at 0.01 µM,[11],99%
same,growth at 0.01 µM,[12],100%
same,growth at 0.01 µM,[13],98%
same,growth at 0.01 µM,[14],103%
same,growth at 0.01 µM,[15],98%
same,growth at 0.01 µM,[16],94%
same,growth at 0.1 µM,[17],89%
same,growth at 0.1 µM,[18],97%
same,growth at 0.1 µM,[19],105%
same,growth at 0.1 µM,[20],105%
same,growth at 0.1 µM,[21],96%
same,growth at 1 µM,[22],93%
same,growth at 1 µM,[23],73%
same,growth at 1 µM,[24],62%
same,growth at 1 µM,[25],89%
same,growth at 10 µM,[26],73%
same,growth at 10 µM,[27],66%
same,growth at 10 µM,[28],63%
same,growth at 10 µM,[29],75%
same,growth at 10 µM,[30],40%
same,growth at 10 µM,[31],47%
same,growth at 100 µM,[32],-5%
same,growth at 100 µM,[33],-10%
same,growth at 100 µM,[34],-25%
